{
  "source": "patent US6355799B1",
  "about": "“Substituted benzene compounds, process for their preparation, and herbicidal and defoliant compositions containing them” (ISK Americas Incorporated, priority 1997, dated 2002)",
  "format_in_all_cases": "in vivo",
  "key": {"[1]": {"tested_on": "upland rice (Oryza sp., var. Tebonnet, RICE)", "test": "Post-emerge test, crop safety", "details": "post-emerge, crop damage rating 0-100 at 14 days after application", "procedure,_shortened": "(§1)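 Compounds in acetone were track-sprayed at 187 l/ha, 15–1000 g ai/ha, onto sandy loam pots. Pre-emerge seeds were sown one day before spraying, with surface watering afterwards. Post-emerge plants were at the 2–3 leaf stage and sprayed with 0.25% v/v non-ionic surfactant. Injury was rated 0–100 at 14 days.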"}, "[2]": {"tested_on": "field corn (Zea mays L., var. Dekalb 535, CORN)", "test": "Post-emerge test, crop safety", "details": "post-emerge, crop damage rating 0-100 at 14 days after application", "procedure,_shortened": "as §1"}, "[3]": {"tested_on": "large crabgrass (Digitaria sanguinalis, DIGSA)", "test": "Post-emerge test, greenhouse herbicide activity screening", "details": "post-emerge, phytotoxicity rating 0-100 at 14 days after application", "excerpt": "(§2) A standard greenhouse herbicide activity screening system was used to evaluate the herbicidal efficacy and crop safety of these test compounds. Seven broadleaf weed species including redroot pigweed (Amaranthus retroflexus, AMARE, velvetleaf (Abutilon theophrasti, ABUTH), sicklepod (Cassia obtusifolia, CASOB), ivyleaf morningglory (Ipomoea hederacea, IPOHE), lambsquarters (Chenopodium album, CHEAL), common ragweed (Ambrosia artemisizfolia L., AMBEL), and cocklebur (Xanthium strumarium, XANST) were used as test species. Four grass weed species including green foxtail (Setaria viridis, SETVI), barnyardgrass (Echinochloa crus-galli, ECHCG), johnsongrass (Sorghum halepense, SORHA), and large crabgrass (Digitaria sanguinalis, DIGSA) were also used. In addition, three crop species, field corn (Zea mays L., var. Dekalb 535, CORN), soybean (Glycine max L., var. Pella 86, SOY), and is upland rice (Oryza sp., var. Tebonnet, RICE) were included.\n(§3) All plants were grown in 10 cm square plastic pots which were filled with a sandy loam soil mix. For pre-emerge tests, seeds were planted one day prior to application of the test compounds. For post-emerge tests, seeds were planted 8-21 days prior to the test to allow emergence and good foliage development prior to application of the test substances. At the time of the post-emerge application, plants of all species were usually at the 2-3 leaf stage of development.\n(§4) All test compounds Were dissolved in acetone and applied to the test units in a volume of 187 l /ha. Test materials were applied at rates ranging from 15 g ai/ha to 1000 g ai/ha using a track sprayer equipped with a TJ8001E even flow flat fan spray nozzle. Plants were arranged on a shelf so that the top of the canopy (post-emerge) or top of the soil surface (pre-emerge) was 40-45 cm below the nozzle. Pressurized air was used to force the test solution through the nozzle as it was mechanically advanced (via electrically driven chain drive) over the top of all test plants/pots. This application simulates a typical commercial field herbicide application.\n(§5) In the post-emerge test, a commercial non-ionic surfactant was also included (0.25% v/v) to enhance wetting of the leaf surfaces of target plants. Immediately after application, test units of the pre-emerge applications were watered at the soil surface to incorporate the test materials. Subsequently, these test units were bottom-watered. Post-emerge test units were always bottom-watered.\n(§6) At 14 days after application of the test materials, phytotoxicity ratings were recorded. A rating scale of 0-100 was used as previously described in Research Methods in Weed Science, 2nd edition, B. Truelove, Ed., Southern Weed Science Society, Auburn University, Auburn, Ala. 1977. Briefly, “0” corresponds to no damage and “100” corresponds to complete death of all plants in the test unit. This scale was used both to determine efficacy against weed species and damage to crop species. Herbicide activity data for various compounds of this invention, which are shown by compound No. in Tables 1-8, are shown in Tables 11 and 12."}, "[4]": {"tested_on": "lambsquarters (Chenopodium album, CHEAL)", "test": "Post-emerge test, greenhouse herbicide activity screening", "details": "post-emerge, phytotoxicity rating 0-100 at 14 days after application", "excerpt": "as §2, §3, §4, §5, §6"}, "[5]": {"tested_on": "redroot pigweed (Amaranthus retroflexus, AMARE)", "test": "Post-emerge test, greenhouse herbicide activity screening", "details": "post-emerge, phytotoxicity rating 0-100 at 14 days after application", "excerpt": "as §2, §3, §4, §5, §6"}, "[6]": {"tested_on": "velvetleaf (Abutilon theophrasti, ABUTH)", "test": "Post-emerge test, greenhouse herbicide activity screening", "details": "post-emerge, phytotoxicity rating 0-100 at 14 days after application", "excerpt": "as §2, §3, §4, §5, §6"}, "[7]": {"tested_on": "barnyardgrass (Echinochloa crus-galli, ECHCG)", "test": "Post-emerge test, greenhouse herbicide activity screening", "details": "post-emerge, phytotoxicity rating 0-100 at 14 days after application", "excerpt": "as §2, §3, §4, §5, §6"}, "[8]": {"tested_on": "ivyleaf morningglory (Ipomoea hederacea, IPOHE)", "test": "Post-emerge test, greenhouse herbicide activity screening", "details": "post-emerge, phytotoxicity rating 0-100 at 14 days after application", "excerpt": "as §2, §3, §4, §5, §6"}, "[9]": {"tested_on": "sicklepod (Cassia obtusifolia, CASOB)", "test": "Post-emerge test, greenhouse herbicide activity screening", "details": "post-emerge, phytotoxicity rating 0-100 at 14 days after application", "excerpt": "as §2, §3, §4, §5, §6"}, "[10]": {"tested_on": "green foxtail (Setaria viridis, SETVI)", "test": "Post-emerge test, greenhouse herbicide activity screening", "details": "post-emerge, phytotoxicity rating 0-100 at 14 days after application", "excerpt": "as §2, §3, §4, §5, §6"}, "[11]": {"tested_on": "redroot pigweed (Amaranthus retroflexus, AMARE)", "test": "Pre-emerge test, greenhouse herbicide activity screening", "details": "pre-emerge, phytotoxicity rating 0-100 at 14 days after application", "procedure,_shortened": "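Herbicidal damage is scored 0 (none) to 100 (complete plant death) two weeks after a simulated field spray. Rates span 15–1000 g ai/ha, delivered in acetone at 187 l/ha. For post-emergence treatments, plants have 2–3 leaves and the spray carries 0.25% v/v non-ionic surfactant.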"}, "[12]": {"tested_on": "upland rice (Oryza sp., var. Tebonnet, RICE)", "test": "Pre-emerge test, crop safety", "details": "crop damage, pre-emerge, phytotoxicity rating 0-100 at 14 days after application", "procedure,_shortened": "as §1"}, "[13]": {"tested_on": "field corn (Zea mays L., var. Dekalb 535, CORN)", "test": "Pre-emerge test, crop safety", "details": "crop damage, pre-emerge, phytotoxicity rating 0-100 at 14 days after application", "procedure,_shortened": "as §1"}, "[14]": {"tested_on": "large crabgrass (Digitaria sanguinalis, DIGSA)", "test": "Pre-emerge test, greenhouse herbicide activity screening", "details": "pre-emerge, phytotoxicity rating 0-100 at 14 days after application", "excerpt": "as §2, §3, §4, §5, §6"}, "[15]": {"tested_on": "lambsquarters (Chenopodium album, CHEAL)", "test": "Pre-emerge test, greenhouse herbicide activity screening", "details": "pre-emerge, phytotoxicity rating 0-100 at 14 days after application", "excerpt": "as §2, §3, §4, §5, §6"}, "[16]": {"tested_on": "velvetleaf (Abutilon theophrasti, ABUTH)", "test": "Pre-emerge test, greenhouse herbicide activity screening", "details": "pre-emerge, phytotoxicity rating 0-100 at 14 days after application", "excerpt": "as §2, §3, §4, §5, §6"}, "[17]": {"tested_on": "barnyardgrass (Echinochloa crus-galli, ECHCG)", "test": "Pre-emerge test, greenhouse herbicide activity screening", "details": "pre-emerge, phytotoxicity rating 0-100 at 14 days after application", "excerpt": "as §2, §3, §4, §5, §6"}, "[18]": {"tested_on": "ivyleaf morningglory (Ipomoea hederacea, IPOHE)", "test": "Pre-emerge test, greenhouse herbicide activity screening", "details": "pre-emerge, phytotoxicity rating 0-100 at 14 days after application", "excerpt": "as §2, §3, §4, §5, §6"}, "[19]": {"tested_on": "sicklepod (Cassia obtusifolia, CASOB)", "test": "Pre-emerge test, greenhouse herbicide activity screening", "details": "pre-emerge, phytotoxicity rating 0-100 at 14 days after application", "excerpt": "as §2, §3, §4, §5, §6"}, "[20]": {"tested_on": "green foxtail (Setaria viridis, SETVI)", "test": "Pre-emerge test, greenhouse herbicide activity screening", "details": "pre-emerge, phytotoxicity rating 0-100 at 14 days after application", "excerpt": "as §2, §3, §4, §5, §6"}},
  "data": [
    {"smiles": "Cc1c(Cl)cc(F)c(-n2c(=O)cc(C(F)(F)F)n(C)c2=O)c1NC(=O)OCc1cccc([N+](=O)[O-])c1", "note": "[4-67]", "values": [
      {"measurement": "Post-emerge Herbicidal Activity RICE", "setting": "[1]; 63 g ai/ha", "result": 50},
      {"measurement": "Post-emerge Herbicidal Activity RICE", "setting": "[1]; 250 g ai/ha", "result": 70},
      {"measurement": "Post-emerge Herbicidal Activity CORN", "setting": "[2]; 63 g ai/ha", "result": 55},
      {"measurement": "Post-emerge Herbicidal Activity CORN", "setting": "[2]; 250 g ai/ha", "result": 70},
      {"measurement": "Post-emerge Herbicidal Activity DIGSA", "setting": "[3]; 63 g ai/ha", "result": 70},
      {"measurement": "Post-emerge Herbicidal Activity DIGSA", "setting": "[3]; 250 g ai/ha", "result": 80},
      {"measurement": "Post-emerge Herbicidal Activity CHEAL", "setting": "[4]; 63 g ai/ha", "result": 100},
      {"measurement": "Post-emerge Herbicidal Activity CHEAL", "setting": "[4]; 250 g ai/ha", "result": 100},
      {"measurement": "Post-emerge Herbicidal Activity AMARE", "setting": "[5]; 63 g ai/ha", "result": 100},
      {"measurement": "Post-emerge Herbicidal Activity AMARE", "setting": "[5]; 250 g ai/ha", "result": 100},
      {"measurement": "Post-emerge Herbicidal Activity ABUTH", "setting": "[6]; 63 g ai/ha", "result": 100},
      {"measurement": "Post-emerge Herbicidal Activity ABUTH", "setting": "[6]; 250 g ai/ha", "result": 100},
      {"measurement": "Post-emerge Herbicidal Activity ECHCG", "setting": "[7]; 63 g ai/ha", "result": 40},
      {"measurement": "Post-emerge Herbicidal Activity ECHCG", "setting": "[7]; 250 g ai/ha", "result": 70},
      {"measurement": "Post-emerge Herbicidal Activity IPOHE", "setting": "[8]; 63 g ai/ha", "result": 100},
      {"measurement": "Post-emerge Herbicidal Activity IPOHE", "setting": "[8]; 250 g ai/ha", "result": 100},
      {"measurement": "Post-emerge Herbicidal Activity CASOB", "setting": "[9]; 63 g ai/ha", "result": 100},
      {"measurement": "Post-emerge Herbicidal Activity CASOB", "setting": "[9]; 250 g ai/ha", "result": 100},
      {"measurement": "Post-emerge Herbicidal Activity SETVI", "setting": "[10]; 63 g ai/ha", "result": 90},
      {"measurement": "Post-emerge Herbicidal Activity SETVI", "setting": "[10]; 250 g ai/ha", "result": 90},
      {"measurement": "Pre-emerge Herbicidal Activity AMARE", "setting": "[11]; rate 63 g ai/ha", "result": 100},
      {"measurement": "Pre-emerge Herbicidal Activity AMARE", "setting": "[11]; rate 250 g ai/ha", "result": 100},
      {"measurement": "Pre-emerge Herbicidal Activity RICE", "setting": "[12]; rate 63 g ai/ha", "result": 60},
      {"measurement": "Pre-emerge Herbicidal Activity RICE", "setting": "[12]; rate 250 g ai/ha", "result": 40},
      {"measurement": "Pre-emerge Herbicidal Activity CORN", "setting": "[13]; rate 63 g ai/ha", "result": 5},
      {"measurement": "Pre-emerge Herbicidal Activity CORN", "setting": "[13]; rate 250 g ai/ha", "result": 15},
      {"measurement": "Pre-emerge Herbicidal Activity DIGSA", "setting": "[14]; rate 63 g ai/ha", "result": 100},
      {"measurement": "Pre-emerge Herbicidal Activity DIGSA", "setting": "[14]; rate 250 g ai/ha", "result": 100},
      {"measurement": "Pre-emerge Herbicidal Activity CHEAL", "setting": "[15]; rate 63 g ai/ha", "result": 100},
      {"measurement": "Pre-emerge Herbicidal Activity CHEAL", "setting": "[15]; rate 250 g ai/ha", "result": 100},
      {"measurement": "Pre-emerge Herbicidal Activity ABUTH", "setting": "[16]; rate 63 g ai/ha", "result": 100},
      {"measurement": "Pre-emerge Herbicidal Activity ABUTH", "setting": "[16]; rate 250 g ai/ha", "result": 100},
      {"measurement": "Pre-emerge Herbicidal Activity ECHCG", "setting": "[17]; rate 63 g ai/ha", "result": 40},
      {"measurement": "Pre-emerge Herbicidal Activity ECHCG", "setting": "[17]; rate 250 g ai/ha", "result": 80},
      {"measurement": "Pre-emerge Herbicidal Activity IPOHE", "setting": "[18]; rate 63 g ai/ha", "result": 80},
      {"measurement": "Pre-emerge Herbicidal Activity IPOHE", "setting": "[18]; rate 250 g ai/ha", "result": 90},
      {"measurement": "Pre-emerge Herbicidal Activity CASOB", "setting": "[19]; rate 63 g ai/ha", "result": 40},
      {"measurement": "Pre-emerge Herbicidal Activity CASOB", "setting": "[19]; rate 250 g ai/ha", "result": 60},
      {"measurement": "Pre-emerge Herbicidal Activity SETVI", "setting": "[20]; rate 63 g ai/ha", "result": 90},
      {"measurement": "Pre-emerge Herbicidal Activity SETVI", "setting": "[20]; rate 250 g ai/ha", "result": 100}
    ]}
  ]
}
